Experimental data taken from patent EP0626016B1, “[…] […]” (BRITISH TECHNOLOGY GROUP LIMITED, priority 1992, dated 1993).
Like-named read-outs stand apart in the source and are kept apart here.

Target: T1, HRP Type VIA (Armoracia rusticana, UniProt P00433)
T1 sequence (P00433 31-338): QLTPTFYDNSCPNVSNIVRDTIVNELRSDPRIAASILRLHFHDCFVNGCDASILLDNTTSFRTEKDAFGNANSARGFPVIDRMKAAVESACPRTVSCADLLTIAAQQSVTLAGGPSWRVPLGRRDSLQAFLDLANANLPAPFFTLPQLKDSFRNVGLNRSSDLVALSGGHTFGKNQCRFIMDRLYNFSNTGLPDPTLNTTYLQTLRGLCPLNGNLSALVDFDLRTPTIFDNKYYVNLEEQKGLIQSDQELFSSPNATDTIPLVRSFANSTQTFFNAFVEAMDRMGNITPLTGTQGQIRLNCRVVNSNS
Settings: for (d) Signal: Background: ratio (control = with no enhancer): control value in brackets not reported

| Compound | (a) Decrease in background (without HRP with test cpd.) (0.01 mg/ml, 10µl test compound) | (b) Increase in signal (with HRP, with test cpd.) (0.01 mg/ml, 10µl test compound) | (c) Increase in signal: background ratio (0.01 mg/ml, 10µl test compound) | (a) Decrease in background (without HRP with test cpd.) (0.1 mg/ml, 10µl test compound) | (b) Increase in signal (with HRP, with test cpd.) (0.1 mg/ml, 10µl test compound) | (c) Increase in signal: background ratio (0.1 mg/ml, 10µl test compound) | (a) Decrease in background (without HRP with test cpd.) (1 mg/ml, 10µl test compound) | (b) Increase in signal (with HRP, with test cpd.) (1 mg/ml, 10µl test compound) | (c) Increase in signal: background ratio (1 mg/ml, 10µl test compound) | (a) Decrease in background (without HRP with test cpd.) | (b) Increase in signal (with HRP, with test cpd.) | (c) Increase in signal: background ratio | (d) Signal: Background: ratio (control = with no enhancer) (0.01 mg/ml, 10µl test compound) | (d) Signal: Background: ratio (control = with no enhancer) (0.1 mg/ml, 10µl test compound) | (d) Signal: Background: ratio (control = with no enhancer) (1 mg/ml, 10µl test compound) |
| --- | --- | --- | --- | --- | --- | --- | --- | --- | --- | --- | --- | --- | --- | --- | --- |
| 2-benzimidazolylphenylboronic acid [Compound 1046] | Y | N | N (N = no) | Y | N | N (N = no) | Y | N | N (N = no) | – | – | – | – | – | – |
| C[Si](C)(C)c1ccc(B(O)O)cc1 [Compound 1001, 4-(trimethylsilyl) benzeneboronic acid] | – | – | – | – | – | – | – | – | – | Y | N and Y | Y (key: Column (c) shows whether there was an increase in the signal:background ratio by over 25% of the control value (Y = yes; N = no) | – | – | – |
| OB(O)c1cccc2ccccc12 [Compound 1002, 1-naphthaleneboronic acid] | Y | N | N (N = no) | Y | N | Y (Column (c) shows whether there was an increase in the signal:background ratio by over 25% of the control value (Y = yes) | Y | N | N (N = no) | – | – | – | 2.5 | 3.4 | 0.7 (2.3) |
| COc1ccc(Br)cc1B(O)O [Compound 1003, 5-bromo-2-methoxybenzeneboronic acid] | Y | N | Y (Column (c) shows whether there was an increase in the signal:background ratio by over 25% of the control value (Y = yes) | Y | N | Y (Column (c) shows whether there was an increase in the signal:background ratio by over 25% of the control value (Y = yes) | Y | N | N (N = no) | – | – | – | 8.6 | 12.1 | 2.6 (2.3) |
| OB(O)c1ccccc1-c1ccccc1 [Compound 1004, 2-biphenylboronic acid] | Y | N | N (N = no) | Y | N | N (N = no) | Y | N | N (N = no) | – | – | – | 1.9 | 2.2 | 1.7 (2.3) |
| OB(O)c1cc(N=Nc2cccc(C(F)(F)F)c2)ccc1O [Compound 1005] | N | Y | Y (Column (c) shows whether there was an increase in the signal:background ratio by over 25% of the control value (Y = yes) | N | Y | Y (Column (c) shows whether there was an increase in the signal:background ratio by over 25% of the control value (Y = yes) | Y | N | N (N = no) | – | – | – | 2.7 | 2.9 | 2.4 (2.1) |
| OB(O)c1ccc2cc(O)ccc2c1 [Compound 1006, 6-hydroxy-2-naphthaleneboronic acid] | Y | N | Y (Column (c) shows whether there was an increase in the signal:background ratio by over 25% of the control value (Y = yes) | Y | N | N (N = no) | Y | N | N (N = no) | – | – | – | 5.8 | 1.5 | 0.3 (1.8) |
| OB(O)c1cccc2c1Sc1ccccc1S2 [Compound 1007, 1-thianthreneboronic acid] | Y | N | N (N = no) | Y | N | N (N = no) | Y | N | N (N = no) | – | – | – | 2.1 | 2.5 | 1.8 (2.1) |
| OB(O)c1cccc2c1oc1ccccc12 [Compound 1008, 4-dibenzofuranboronic acid] | Y | N | N (N = no) | Y | N | N (N = no) | Y | N | N (N = no) | – | – | – | 1.6 | 1.5 | 1.3 (2.5) |
| Cc1ccccc1B(O)O [Compound 1009, 2-tolueneboronic acid] | Y | N | N (N = no) | Y | N | Y (Column (c) shows whether there was an increase in the signal:background ratio by over 25% of the control value (Y = yes) | Y | N | N (N = no) | – | – | – | 1.9 | 2.5 | 0.6 (1.8) |
| OB(O)c1ccc(Oc2ccccc2)cc1 [Compound 1010, 4-(phenoxy)benzeneboronic acid] | Y | N | N (N = no) | Y | N | Y (Column (c) shows whether there was an increase in the signal:background ratio by over 25% of the control value (Y = yes) | Y | N | Y (Column (c) shows whether there was an increase in the signal:background ratio by over 25% of the control value (Y = yes) | – | – | – | 3.0 | 4.6 | 5.0 (2.5) |
| c1ccc(B2OCCCO2)cc1 [Compound 1012, 2-phenyl-1,3,2-dioxaborinane] | N | Y | N (N = no) | N | N | N (N = no) | Y | N | Y (Column (c) shows whether there was an increase in the signal:background ratio by over 25% of the control value (Y = yes) | – | – | – | 2.2 | 2.2 | 17.1 (2.5) |
| c1ccc([B-](c2ccccc2)(c2ccccc2)c2ccccc2)cc1 [Compound 1016, tetraphenylboron sodium] | – | – | – | – | – | – | – | – | – | Y | N | N (key: column (a) shows whether the test compound lowered the light output from the luminol-hydrogen peroxide solution (Y = yes; N = no) | – | – | – |
| OCC(CO)(CO)COB(O)O [Compound 1017, pentaerythritol borate] | Y | N | N (N = no) | Y | Y | Y (Column (c) shows whether there was an increase in the signal:background ratio by over 25% of the control value (Y = yes) | Y | N | N (N = no) | – | – | – | 1.8 | 2.5 | 1.8 (1.8) |
